Reference: publication PMC10584170, “Machine learning-based phenotypic imaging to characterise the targetable biology of Plasmodium falciparum male gametocytes for the development of transmission-blocking antimalarials” (PLOS Pathogens, 2023)
Where two headings read alike, the source gives them in different places.

Columns and labels:
[1] = tested on: P. falciparum male gametocytes; test: P. falciparum Dual Gamete Formation Assay (PfDGFA), male readout (exflagellation); assay type: cell-based, Plasmodium falciparum NF54; conditions: for Selectivity Ratio M: HepG2 Tox50 versus male IC50; for IC50: PfDGFA, 24 h incubation with gametocytes before induction, exflagellation readout, read-out: Male IC50; for HitlevelM: number of replicates with >50% inhibition in the male readout
Method in brief: (§1)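 First, day-14 P. falciparum NF54 gametocytes receive compound for 24 h at 37°C in 1% O2/3% CO2. Next, ookinete medium with Cy3 anti-Pfs25 triggers gametogenesis at 28°C and male exflagellation is imaged. Finally, after 24 h in the dark, Cy3-labelled females are imaged.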

[2] = tested on: P. falciparum female gametocytes; test: P. falciparum Dual Gamete Formation Assay (PfDGFA), female readout (Pfs25-positive female gametes); assay type: cell-based, Plasmodium falciparum NF54; conditions: for Selectivity ratio F: HepG2 Tox50 versus female IC50; for IC50: PfDGFA, 24 h incubation with gametocytes before induction, female gamete readout, read-out: Female IC50; for HitlevelF: number of replicates with >50% inhibition in the female readout
Method in brief: as §1

HepG2 cells = test: HepG2 cytotoxicity counter-screen; conditions: cytotoxic activity against HepG2 cells
[3] = PfDGFA at 2µM, 24h preincubation with gametocytes, average of replicates
[4] = PfDGFA at 2µM, 24h preincubation with gametocytes, replicate R1
[5] = PfDGFA at 2µM, 24h preincubation with gametocytes, replicate R3
[6] = PfDGFA at 2µM, 24h preincubation with gametocytes, replicate R4
[7] = Plasmodium falciparum, 2µM, 24h preincubation with gametocytes, average of replicates, read-out: Average inhibition male (%)
[8] = Plasmodium falciparum, 2µM, 24h preincubation with gametocytes, replicate R1, read-out: % inhibition male (individual replicates) R1
[9] = Plasmodium falciparum, 2µM, 24h preincubation with gametocytes, replicate R2, read-out: % inhibition male (individual replicates) R2
[10] = Plasmodium falciparum, 2µM, 24h preincubation with gametocytes, replicate R3, read-out: % inhibition male (individual replicates) R3
[11] = Plasmodium falciparum, 2µM, 24h preincubation with gametocytes, replicate R4, read-out: % inhibition male (individual replicates) R4
[12] = Plasmodium falciparum, 2µM, 24h preincubation with gametocytes, average of replicates, read-out: Average inhibition female (%)
[13] = Plasmodium falciparum, 2µM, 24h preincubation with gametocytes, replicate R1, read-out: % inhibition female (individual replicates) R1
[14] = Plasmodium falciparum, 2µM, 24h preincubation with gametocytes, replicate R2, read-out: % inhibition female (individual replicates) R2
[15] = Plasmodium falciparum, 2µM, 24h preincubation with gametocytes, replicate R3, read-out: % inhibition female (individual replicates) R3
[16] = Plasmodium falciparum, 2µM, 24h preincubation with gametocytes, replicate R4, read-out: % inhibition female (individual replicates) R4
[17] = 2µM, 24h preincubation with gametocytes, average of replicates
[18] = 2µM, 24h preincubation with gametocytes, replicate R1
[19] = 2µM, 24h preincubation with gametocytes, replicate R4
[20] = 2µM, 24h preincubation with gametocytes prior to induction of gametogenesis, average of replicates
[21] = 2µM, 24h preincubation with gametocytes prior to induction of gametogenesis, replicate R1
[22] = 2µM, 24h preincubation with gametocytes prior to induction of gametogenesis, replicate R3
[23] = 2µM, 24h preincubation with gametocytes prior to induction of gametogenesis, replicate R4

Row | Compound | Selectivity Ratio M [1] | IC50 [1] | HitlevelM ([1]; 2µM) | Selectivity ratio F [2] | IC50 [2] | HitlevelF ([2]; 2µM) | Tox50 (HepG2 cells) | inhibition at 2 µM [1, 7] | inhibition at 2 µM [1, 8] | inhibition at 2 µM [1, 9] | inhibition at 2 µM [1, 10] | inhibition at 2 µM [1, 11] | IC50 ([1]; Plasmodium falciparum) | inhibition at 2 µM [2, 12] | inhibition at 2 µM [2, 13] | inhibition at 2 µM [2, 14] | inhibition at 2 µM [2, 15] | inhibition at 2 µM [2, 16] | IC50 ([2]; Plasmodium falciparum) | other results
1 | CCCCOc1ccc(C(=O)C(CCC(CNC(C)(C)C)C(=O)c2ccc(OCCCC)cc2)CNC(C)(C)C)cc1.Cl (centres unmarked) [TCMDC-124120] | 2.27 | 1500 nM | 3 | 0.84 | 4060 nM | 2 | 3.4 µM |  |  |  |  |  |  |  |  |  |  |  |  | Average inhibition male (%) [1, 3]: 78.6%; % inhibition male (individual replicates) R1 [1, 4]: 81.6%; % inhibition male (individual replicates) R3 [1, 5]: 47.4%; % inhibition male (individual replicates) R4 [1, 6]: 92.9%; Average inhibition female (%) [2, 3]: 46.8%; % inhibition female (individual replicates) R1 [2, 4]: 36.1%; % inhibition female (individual replicates) R3 [2, 5]: 20.3%; % inhibition female (individual replicates) R4 [2, 6]: 72.1%
2 | CCN1CCN(c2ccc(Nc3c4ccccc4nc4ccccc34)cc2)CC1 [TCMDC-124255] | 8.44 | 1770 nM | 4 | 2.14 | 6980 nM | 0 | 14.96 µM |  |  |  |  |  |  |  |  |  |  |  |  | Average inhibition male (%) [1, 3]: 77.2%; % inhibition male (individual replicates) R1 [1, 4]: 84.6%; % inhibition male (individual replicates) R3 [1, 5]: 78.3%; % inhibition male (individual replicates) R4 [1, 6]: 87.4%; Average inhibition female (%) [2, 3]: -4.4%; % inhibition female (individual replicates) R1 [2, 4]: -2.2%; % inhibition female (individual replicates) R3 [2, 5]: -22.1%; % inhibition female (individual replicates) R4 [2, 6]: 3.0%
3 | O=C1Nc2ccccc2C1=NNC(=S)N1CCOCC1 [TCMDC-124263] | 49.26 |  |  | 25.94 |  |  | 46.3 µM | 98.7% | 98.4% | 100% | 99.2% | 96.9% | 940 nM | 55.9% | 38.4% | 72% | 48.4% | 64.6% | 1780 nM | 
4 | Cl.Cl.c1ccc2c(NCCCCCCNc3c4ccccc4nc4ccccc34)c3ccccc3nc2c1 [TCMDC-124285] | 3.7 | 1680 nM |  | 1.95 | 3180 nM |  | 6.2 µM |  |  |  |  |  |  |  |  |  |  |  |  | Average inhibition male (%) [1, 17]: 93.2%; % inhibition male (individual replicates) R1 [1, 18]: 96.3%; % inhibition male (individual replicates) R4 [1, 19]: 88.4%; Average inhibition female (%) [2, 17]: 50.4%; % inhibition female (individual replicates) R1 [2, 18]: 48.2%; % inhibition female (individual replicates) R3 ([2]; 2µM, 24h preincubation with gametocytes, replicate R3): 44.8%; % inhibition female (individual replicates) R4 [2, 19]: 50.1%
5 | Cl.c1ccc2c(NCCCCCCCCCNc3c4ccccc4nc4ccccc34)c3ccccc3nc2c1 [TCMDC-124286] | 3.22 | 1960 nM |  | 1.31 | 4810 nM |  | 6.29 µM |  |  |  |  |  |  |  |  |  |  |  |  | Average inhibition male (%) [1, 20]: 61.5%; % inhibition male (individual replicates) R1 [1, 21]: 79.2%; % inhibition male (individual replicates) R3 [1, 22]: 1.0%; % inhibition male (individual replicates) R4 [1, 23]: 84.9%; HitlevelM ([1]; 2µM, 24h preincubation): 3; Average inhibition female (%) [2, 20]: 43.1%; % inhibition female (individual replicates) R1 [2, 21]: 36.0%; % inhibition female (individual replicates) R3 [2, 22]: 18.9%; % inhibition female (individual replicates) R4 [2, 23]: 71.3%; HitlevelF ([2]; 2µM, 24h preincubation): 1
6 | C=CCN(C(=O)c1ccc(Cl)c([N+](=O)[O-])c1)c1nc(-c2ccccc2)cs1 [TCMDC-124436] | 69.29 |  |  | 88.48 |  |  | 27.57 µM | 99.6% | 99.4% | 98.5% | 102% | 98.2% | 400 nM | 53% | 34.2% | 85.7% | 53.1% | 38.9% | 310 nM | 
7 | Cc1cc(Nc2ccncc2)n2nc(C)c(-c3ccc(Cl)cc3)c2n1 [TCMDC-124478] | 68.63 |  |  | 6.55 |  |  | 65.53 µM | 95.5% | 96.8% | 90.6% | 96.8% | 98% | 950 nM | 2.4% | -1.3% | -8.5% | 24.2% | -4.9% | > 10000 nM | 
8 | Cc1sc2ncnc(Sc3nnc(N)s3)c2c1C [TCMDC-124542] | 46.96 |  | 3 | 89.35 |  | 4 | 66.05 µM |  |  |  |  |  | 1410 nM |  |  |  |  |  | 740 nM | inhibition at 2 µM ([1]; Plasmodium falciparum, PfDGFA at 2µM, 24h preincubation with gametocytes, average of replicates, read-out: Average inhibition male (%)): 69.3%; inhibition at 2 µM ([1]; Plasmodium falciparum, PfDGFA at 2µM, 24h preincubation with gametocytes, replicate R1, read-out: % inhibition male (individual replicates) R1): 92.1%; inhibition at 2 µM ([1]; Plasmodium falciparum, PfDGFA at 2µM, 24h preincubation with gametocytes, replicate R2, read-out: % inhibition male (individual replicates) R2): 95.8%; inhibition at 2 µM ([1]; Plasmodium falciparum, PfDGFA at 2µM, 24h preincubation with gametocytes, replicate R3, read-out: % inhibition male (individual replicates) R3): 87%; inhibition at 2 µM ([1]; Plasmodium falciparum, PfDGFA at 2µM, 24h preincubation with gametocytes, replicate R4, read-out: % inhibition male (individual replicates) R4): 2.3%; inhibition at 2 µM ([2]; Plasmodium falciparum, PfDGFA at 2µM, 24h preincubation with gametocytes, average of replicates, read-out: Average inhibition female (%)): 86.8%; inhibition at 2 µM ([2]; Plasmodium falciparum, PfDGFA at 2µM, 24h preincubation with gametocytes, replicate R1, read-out: % inhibition female (individual replicates) R1): 95.8%; inhibition at 2 µM ([2]; Plasmodium falciparum, PfDGFA at 2µM, 24h preincubation with gametocytes, replicate R2, read-out: % inhibition female (individual replicates) R2): 96.9%; inhibition at 2 µM ([2]; Plasmodium falciparum, PfDGFA at 2µM, 24h preincubation with gametocytes, replicate R3, read-out: % inhibition female (individual replicates) R3): 102%; inhibition at 2 µM ([2]; Plasmodium falciparum, PfDGFA at 2µM, 24h preincubation with gametocytes, replicate R4, read-out: % inhibition female (individual replicates) R4): 52.6%
